Laboratory results reported in US20260116874A1, “HETEROAROMATIC INDOLESULFONAMIDES” (SEED Therapeutics, Inc., priority 2023, published 2026).
Converted amounts (≈) assume the structure as drawn.

How the values were obtained:
HCT116 colorectal cells = assay: Cell viability assay (CellTiter-Glo) in HCT116 cells; format: cell-based; settings: Homo sapiens, HCT-116, 72h, CellTiter-Glo, read-out: HCT116 Assay (IC50)
Protocol: HCT116 colorectal cells were used in these experiments. HCT116 cells were obtained from ATCC. The CellTiter-Glo® Luminescent Cell Viability Assay Reagent was obtained from Promega.
Into a 96-well plate, 3000 HCT116 cells were seeded with 100 μL of media (McCoy's 5A Medium supplemented with 10% FBS, 100 units penicillin, and 100 μg streptomycin per mL) 24h before the experiment. For compound treatment, the liquid handling system-Pico machine was used to prepare all the compounds. Each master plate contained serial dilution of 2 compounds, including the control compound E7820. 10 mM compound stock was added to each well of the assay plate to give final concentrations of […], 0.003, 0.002 and 0 μM. Each concentration was tested in triplicate. After 72h, cell viability was determined using CellTiter-Glo Luminescent Cell Viability Assay Reagent following the manufacturer's recommended protocol. Briefly, equilibrate the assay plate and its contents at room temperature for approximately 30 minutes. 100 μL of CellTiter-Glo reagent was added to each well of the assay plate and the contents were mixed for 2 minutes at 500 rpm on an orbital shaker to induce cell lysis (Fisherbrand). The plate was incubated at room temperature for 10 minutes to stabilize luminescent signal. Then the plate was immediately placed in a plate reader (PerkinElmer Multimode Plate Reader Envision2105) and the luminescence signal (0.5 second per well integration time) was determined. IC50 values were calculated using Graphpad Prism 9 software.
Cell viability assays were performed to compare the potency of Compound 1 to Compound 143.

[1] = General solubility protocol (PBS, pH 7.4); format: physicochemical; settings: PBS buffer, aqueous buffer, kinetic from dmso stock, pH 7.4, 25° C.
Protocol: Into a 96-well rack, 15 μL of stock solution (10 mM) of each sample was placed. Into each vial of a cap-less Solubility Sample plate 485 μL of buffer was added. The assay was performed in duplicate. To each vial one stir stick was added and each vial was sealed using a molded PTFE/Silicone plug. The Solubility Sample plate was then transferred to an Eppendorf Thermomixer Comfort plate shaker and shake at 25° C. at 1100 RPM for 2 hours. […] Using a vacuum manifold, all the samples were filtered. An aliquot of 5 μL was taken from the filtrate and 5 μL blank DMSO followed by addition of 490 μL of a mixture of H2O and acetonitrile containing an internal standard (1:1). The dilution factor may be changed according to the solubility value and the LC/MS signal response.

[2] = Liver microsomes stability, human; format: in vitro ADME; settings: 1 μM, Table 3, read-out: Metabolic Stability Half-life, human
Protocol: (§1) A 100 μM test compound solution and PC solution (verapamil) was prepared by adding 2 μL of 10 mM stock solution in DMSO to 198 μL of 50% acetonitrile/50% water.
(§2) Two separate experiments were performed as follows:
(§3) a) With Cofactors (NADPH): 25 μL of 10 mM NADPH was added to the incubations. The final concentrations of microsomes and NADPH were 0.5 mg/mL and 1 mM, respectively.
(§4) b) Without Cofactors (NADPH): 25 μL of 100 mM Phosphate buffer was added to the incubations. The final concentration of microsomes was 0.5 mg/mL. The mixture was pre-warmed at 37° C. for 10 minutes.
(§5) The reaction was started with the addition of 2.5 μL of 100 µM control compound or test compound solutions. Verapamil was used as positive control in this study. The final concentration of test compound or control compound was 1 μM. The incubation solution was incubated in a water bath at 37° C.
(§6) Aliquots of 30 μL were taken from the reaction solution at 0.5, 15, 30, 45 and 60 minutes. The reaction was stopped by the addition of 5 volumes of cold acetonitrile with IS (100 nM alprazolam, 200 nM caffeine and 100 nM tolbutamide).
(§7) Samples were then centrifuged at 3,220 g for 40 minutes. An aliquot of 100 μL of the supernatant was mixed with 100 μL of ultra-pure H2O and then used for LC-MS/MS analysis.
(§8) Single dose PK parameters were also determined for Compound 143, a deuterated derivative of Compound 1, according to the methods described herein. […] Metabolic stability was assessed by measuring the half-life of the test compounds in human and mouse liver microsomes.

[3] = Liver microsomes stability, mouse; format: in vitro ADME; settings: 1 μM, Table 3, read-out: Metabolic Stability Half-life, mouse
Protocol: as §1, §2, §3, §4, §5, §6, §7, §8

MDR1 = biological target: T1, MDR1 (Homo sapiens, UniProt P08183); assay: MDCK-MDR1 permeability / efflux assay; format: in vitro ADME, canine; settings: dog, MDCK-MDR1, pH 7.4, MDCK-MDR1, 1 μM, 2 hours; Table 3; read-out: MDCK-MDR1 Efflux ratio
T1 construct: expressed in transfected cells; host or cells: MDCK-MDR1 cells (MDCK host)
T1 sequence (P08183 whole entry): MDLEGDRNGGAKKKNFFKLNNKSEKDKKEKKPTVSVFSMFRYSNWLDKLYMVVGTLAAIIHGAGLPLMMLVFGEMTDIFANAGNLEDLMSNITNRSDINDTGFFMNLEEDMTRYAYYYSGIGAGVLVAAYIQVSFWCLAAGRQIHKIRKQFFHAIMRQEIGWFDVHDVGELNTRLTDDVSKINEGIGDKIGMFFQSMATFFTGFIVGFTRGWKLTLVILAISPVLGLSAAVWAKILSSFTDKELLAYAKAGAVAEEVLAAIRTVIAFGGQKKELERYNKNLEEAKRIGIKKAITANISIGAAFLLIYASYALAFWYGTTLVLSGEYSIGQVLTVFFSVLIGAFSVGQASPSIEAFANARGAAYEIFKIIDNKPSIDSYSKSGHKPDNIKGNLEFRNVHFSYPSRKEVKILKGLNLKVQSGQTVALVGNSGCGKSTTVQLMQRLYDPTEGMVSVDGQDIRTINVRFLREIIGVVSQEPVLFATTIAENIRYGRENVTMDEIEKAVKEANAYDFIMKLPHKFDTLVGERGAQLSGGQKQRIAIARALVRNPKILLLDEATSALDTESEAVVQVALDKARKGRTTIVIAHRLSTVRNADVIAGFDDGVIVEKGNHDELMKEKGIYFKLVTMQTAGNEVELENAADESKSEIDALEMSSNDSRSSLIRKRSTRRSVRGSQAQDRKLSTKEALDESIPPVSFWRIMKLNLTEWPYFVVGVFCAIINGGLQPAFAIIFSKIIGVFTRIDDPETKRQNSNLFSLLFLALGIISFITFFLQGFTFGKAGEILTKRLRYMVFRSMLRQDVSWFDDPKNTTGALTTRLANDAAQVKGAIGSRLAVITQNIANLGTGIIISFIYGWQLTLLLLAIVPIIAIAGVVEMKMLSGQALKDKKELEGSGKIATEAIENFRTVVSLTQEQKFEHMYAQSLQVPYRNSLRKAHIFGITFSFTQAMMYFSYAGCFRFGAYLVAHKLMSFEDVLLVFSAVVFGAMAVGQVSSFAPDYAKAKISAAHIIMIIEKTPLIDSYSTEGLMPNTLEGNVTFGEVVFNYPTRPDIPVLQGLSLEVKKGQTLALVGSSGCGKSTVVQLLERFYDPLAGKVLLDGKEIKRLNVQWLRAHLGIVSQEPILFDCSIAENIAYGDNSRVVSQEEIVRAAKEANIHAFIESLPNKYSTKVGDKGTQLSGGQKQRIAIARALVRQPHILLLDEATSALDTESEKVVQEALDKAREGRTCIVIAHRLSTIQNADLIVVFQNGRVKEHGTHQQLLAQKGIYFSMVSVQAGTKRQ
Protocol: To prepare transport buffer (HBSS with 10 mM HEPES, pH 7.4), 2.383 g of HEPES and 0.35 g sodium hydrogen carbonate was accurately weighed and added into 900 mL of pure water, then sonicated to dissolve the content. Into the solution was transferred 100 mL of 10×HBSS, and the solution was placed on a stirrer. The pH of the solution was slowly adjusted with sodium hydroxide to 7.4, followed with filtering.
MDCK-MDR1 plate(s) were removed from the incubator. The monolayer was washed the monolayer twice with pre-warmed HBSS (10 mM HEPES, pH 7.4). Then the plate(s) were incubated at 37° C. for 30 minutes.
Propranolol was used as the high permeability marker. Digoxin was used as the substrate of […] (MDR1). Stock solutions of test compound(s) and digoxin in DMSO at 0.2 mM were prepared and diluted with HBSS (10 mM HEPES, pH 7.4) to get 1 μM working solutions. Stock solutions of propranolol in DMSO at 1 mM was prepared and diluted with HBSS (10 mM HEPES, pH 7.4) to get 5 μM working solutions.
To determine the rate of drug transport in the apical to basolateral direction, 125 μL of the working solution was added to the Transwell insert (apical compartment), and a 50 μL sample was immediately transferred from the apical compartment to 200 μL quenching solvents (acetonitrile with 100 nM alprazolam, 200 nM caffeine, 200 nM labetalol and 100 nM tolbutamide) in a new 96-well plate as the initial donor sample (A-B). The plate was shaken at 1000 rpm for 10 minutes. The wells in the receiver plate (basolateral compartment) were filled with 235 μL of transport buffer. All incubations were performed in duplicate.
To determine the rate of drug transport in the basolateral to apical direction, 285 μL of the 1 μM working solution was added to the receiver plate wells (basolateral compartment), and a 50 μL sample was immediately transferred from the basolateral compartment to 200 μL quenching solvents (acetonitrile with 100 nM alprazolam, 200 nM caffeine, 200 nM labetalol and 100 nM tolbutamide) in a new 96-well plate as the initial donor sample (B-A). Shake the plate at 1000 rpm 10 minutes. The Transwell insert (apical compartment) was filled with 75 μL of transport buffer. The apical to basolateral direction and the basolateral to apical direction were done at the same time.
The Transwell insert plate was inserted into the basolateral plate, transferred into the incubator and incubated at 37° C. for 2 hours.
At the end of the incubation, 50 μL samples from donor sides (apical compartment for Ap→Bl flux, and basolateral compartment for Bl→Ap flux) and receiver sides (basolateral compartment for Ap→Bl flux, and apical compartment for Bl→Ap flux) were transferred to wells of a new 96-well plate, followed by the addition of 4 volume of quenching solvents (acetonitrile with 100 nM alprazolam, 200 nM caffeine, 200 nM labetalol and 100 nM tolbutamide). Samples were Vortexed for 10 minutes and then centrifuged at 3,220 g for 40 minutes. An aliquot of 100 μL of the supernatant was mixed with an appropriate volume of ultra-pure water before LC-MS/MS analysis.
To determine the Lucifer yellow leakage after 2-hour transport period, Lucifer yellow working solutions were prepared by diluting the stock solution with HBSS (10 mM HEPES, pH 7.4) to reach the final concentration of 100 μM. To the apical compartment, 100 μL of the Lucifer yellow solution were added. The plate(s) were incubated at 37° C. for 30 minutes and 80 μL was directly removed from the apical and basolateral wells and transferred to new 96 wells plates. Lucifer yellow fluorescence (to monitor monolayer integrity) was measured in a fluorescence plate reader at 485 nm excitation and 530 nm emission.

IC50 (HCT116 colorectal cells) [µM] | solubility at 2 h [1] [µM] | half-life at 1 µM [2] [h] | half-life at 1 µM [3] [h] | efflux ratio at 2 h, 1 µM (MDR1) | SMILES
< 0.5 | 292 (≈ 92.4 µg/mL) | > 3.85 | 2.68 | 6.74 | Cc1ncc(S(=O)(=O)Nc2ccc(C)c3c(C#N)c[nH]c23)o1 [Compound 2, N-(3-cyano-4-methyl-1H-indol-7-yl)-2-methyl-oxazole-5-sulfonamide]
< 0.5 | 1.91 (≈ 0.653 µg/mL) | 0.396 |  | 1.11 | Cc1ncc(S(=O)(=O)Nc2ccc(C)c3c(Cl)c[nH]c23)s1 [Compound 20, N-(3-chloro-4-methyl-1H-indol-7-yl)-2-methyl-thiazole-5-sulfonamide]
 | 1.24 (≈ 0.436 µg/mL) | 1.16 | 0.566 | 50.1 | Cc1ccc(NS(=O)(=O)c2ccn3ccnc3c2)c2[nH]cc(C#N)c12 [Compound 39]
< 0.5 | 294 (≈ 97.6 µg/mL) | 0.557 | 1.02 | 4.84 | Cc1cc(S(=O)(=O)Nc2ccc(C)c3c(C#N)c[nH]c23)sn1 [Compound 57]
